Data set [1] can be described thus: pH of lidocaine donor solutions of varying base:salt ratio (Example 1). Type of data set: physicochemical.
Description: Two identical experiments were conducted at pHs 4.95 and 7.35, one at pH 6.85, and three at pH 6.25.
Data set [2] in a line: transdermal flux of lidocaine and epinephrine from gel formulations 14 and 15 (Example 3). As to conditions: formulation 14 (pH 3.68) vs 15 (pH 6.42); samples at 10, 30, 60 and 90 minutes.
Description: The formulation 14 and 15 gels were subjected to transdermal flux experiments using heat stripped chest and breast skin from human cadavers using the electrotransport permeation cell described in Example 2 and FIG. 3. Measurements were taken from the receptor compartment of the cell at 10 minutes, 30 minutes, 60 minutes, and 90 minutes after start of application of electrotransport current.

Results on two compounds are retold here after patent US5990179A, “Composition and method of enhancing electrotransport agent delivery” (ALZA Corporation, priority 1995, dated 1999).

Structures are written as SMILES.

Turning to `CCN(CC)CC(=O)Nc1c(C)cccc1C` [lidocaine], the pH in data set [1] (0 mmoles lidocaine base, 199 mmoles lidocaine HCl) worked out at 4.95; in data set [1] (2.1 mmoles lidocaine base, 195 mmoles lidocaine HCl), 6.25; in data set [1] (6.0 mmoles lidocaine base, 191 mmoles lidocaine HCl) it was 6.85; in data set [1] (20.3 mmoles lidocaine base, 179 mmoles lidocaine HCl), 7.35.

In the case of `CNC[C@H](O)c1ccc(O)c(O)c1` [epinephrine], the “transdermal flux, formulation 14 versus 15” value in data set [2] is “did not have a significant statistical difference between formulation 14 and 15”.
